Experimental data: publication PMC10913730, “Antimicrobial activity of a natural compound and analogs against multi-drug-resistant Gram-positive pathogens” (Microbiology Spectrum, 2024)
Read-outs that look alike come from different tables or passages of the source.

Experiments:
[1] = system: human dermal fibroblast (HDF) cells; test: alamarBlue cell viability assay, HDF; details: HDFs, 24-hour incubation, non-linear regression
[2] = pH and Ka of 10-g/L aqueous solutions (pH meter); format: physicochemical; details: 10-g/L solution in distilled, deionized water
[3] = Aqueous solubility of compounds reconstituted at 10 mg/mL in water; details: 10 mg/mL in distilled deionized water
[4] = system: human bronchial epithelial (16HBE) cells; test: alamarBlue cell viability assay, 16HBE; details: 24-hour incubation, non-linear regression
MRSA isolates = test: MIC/MBC, CLSI broth microdilution, MRSA isolates; format: cell-based, Staphylococcus aureus
[5] = system: erythrocytes (sheep blood); test: Hemolytic activity against sheep erythrocytes
[6] = Staphylococcus aureus, MRSA, pH 5.5, MRSA 0606, pH 5.5
[7] = Staphylococcus aureus, MRSA, pH 5.5, MRSA 0608, pH 5.5
[8] = Staphylococcus aureus, MRSA, pH 5.5, MRSA 0634, pH 5.5
[9] = Staphylococcus aureus, MRSA, pH 5.5, MRSA 0641, pH 5.5
[10] = Staphylococcus aureus, MRSA, pH 5.5, MRSA 0646, pH 5.5
[11] = Staphylococcus aureus, MRSA, pH 5.5, TCH 1516, pH 5.5
[12] = Staphylococcus aureus, MRSA, pH 6.5, MRSA 0606, pH 6.5
[13] = Staphylococcus aureus, MRSA, pH 6.5, MRSA 0608, pH 6.5
[14] = Staphylococcus aureus, MRSA, pH 6.5, MRSA 0634, pH 6.5
[15] = Staphylococcus aureus, MRSA, pH 6.5, MRSA 0641, pH 6.5
[16] = Staphylococcus aureus, MRSA, pH 6.5, MRSA 0646, pH 6.5
[17] = Staphylococcus aureus, MRSA, pH 6.5, TCH 1516, pH 6.5
[18] = Staphylococcus aureus, MRSA, pH 7.4, MRSA 0606, pH 7.4
[19] = Staphylococcus aureus, MRSA, pH 7.4, MRSA 0608, pH 7.4
[20] = Staphylococcus aureus, MRSA, pH 7.4, MRSA 0634, pH 7.4
[21] = Staphylococcus aureus, MRSA, pH 7.4, MRSA 0641, pH 7.4
[22] = Staphylococcus aureus, MRSA, pH 7.4, MRSA 0646, pH 7.4
[23] = Staphylococcus aureus, MRSA, pH 7.4, TCH 1516, pH 7.4

For `[Na+].[Na+].[O-]c1c(Cl)cc(Cl)cc1-c1cc(Cl)cc(Cl)c1[O-]` [C59Na], the LD50 [1] was 57.5 µg/mL, the “acid dissociation constant (Ka)” value [2] was 1.54 × 10^−16 and the pH of solution ([2]; room temperature) was 8.69. The aqueous solubility [3] was “moderate aqueous solubility”, the LD50 [4] was 30.0 µg/mL and the MIC90 (MRSA isolates; Staphylococcus aureus, MRSA, 39 evaluated MRSA isolates, CLSI broth microdilution) was 4 µg/mL. It also gave an MBC (MRSA isolates; [6]) of 0.25 µg/mL, an MIC (MRSA isolates; [6]) of 0.25 µg/mL and an MBC (MRSA isolates; [7]) of 0.25 µg/mL. The MIC (MRSA isolates; [7]) was 0.25 µg/mL, the MBC (MRSA isolates; [8]) was 0.25 µg/mL and the MIC (MRSA isolates; [8]) was 0.25 µg/mL. For the same compound, the MBC (MRSA isolates; [9]) was 0.25 µg/mL, the MIC (MRSA isolates; [9]) was 0.25 µg/mL and the MBC (MRSA isolates; [10]) was 0.25 µg/mL. It also gave an MIC (MRSA isolates; [10]) of 0.25 µg/mL, an MBC (MRSA isolates; [11]) of 0.25 µg/mL and an MIC (MRSA isolates; [11]) of 0.25 µg/mL. It also gave an MBC (MRSA isolates; Staphylococcus aureus, MRSA, pH 5.5, read-out: Average MBC, average of six MRSA isolates, pH 5.5) of 0.25 µg/mL, an MIC (MRSA isolates; Staphylococcus aureus, MRSA, pH 5.5, read-out: Average MIC, average of six MRSA isolates, pH 5.5) of 0.25 µg/mL and an MBC (MRSA isolates; [12]) of 1 µg/mL. For the same compound, the MIC (MRSA isolates; [12]) was 0.5 µg/mL, the MBC (MRSA isolates; [13]) was 1 µg/mL and the MIC (MRSA isolates; [13]) was 1 µg/mL. It also gave an MBC (MRSA isolates; [14]) of 1 µg/mL, an MIC (MRSA isolates; [14]) of 1 µg/mL and an MBC (MRSA isolates; [15]) of 1 µg/mL. For the same compound, the MIC (MRSA isolates; [15]) was 0.5 µg/mL, the MBC (MRSA isolates; [16]) was 1 µg/mL and the MIC (MRSA isolates; [16]) was 0.5 µg/mL. The MBC (MRSA isolates; [17]) was 2 µg/mL, the MIC (MRSA isolates; [17]) was 1 µg/mL and the MBC (MRSA isolates; Staphylococcus aureus, MRSA, pH 6.5, read-out: Average MBC, average of six MRSA isolates, pH 6.5) was 1.2 µg/mL. It also gave an MIC (MRSA isolates; Staphylococcus aureus, MRSA, pH 6.5, read-out: Average MIC, average of six MRSA isolates, pH 6.5) of 0.75 µg/mL, an MBC (MRSA isolates; [18]) of 2 µg/mL and an MIC (MRSA isolates; [18]) of 2 µg/mL. It also gave an MBC (MRSA isolates; [19]) of 4 µg/mL, an MIC (MRSA isolates; [19]) of 2 µg/mL and an MBC (MRSA isolates; [20]) of 2 µg/mL. For the same compound, the MIC (MRSA isolates; [20]) was 2 µg/mL, the MBC (MRSA isolates; [21]) was 4 µg/mL and the MIC (MRSA isolates; [21]) was 2 µg/mL. For the same compound, the MBC (MRSA isolates; [22]) was 4 µg/mL, the MIC (MRSA isolates; [22]) was 1 µg/mL and the MBC (MRSA isolates; [23]) was 2 µg/mL. It also gave an MIC (MRSA isolates; [23]) of 2 µg/mL, an MBC (MRSA isolates; Staphylococcus aureus, MRSA, pH 7.4, read-out: Average MBC, average of six MRSA isolates, pH 7.4) of 3 µg/mL and an MIC (MRSA isolates; Staphylococcus aureus, MRSA, pH 7.4, read-out: Average MIC, average of six MRSA isolates, pH 7.4) of 1.8 µg/mL. For the same compound, the MBC (MRSA isolates; Staphylococcus aureus, MRSA, read-out: MBC90, 39 evaluated MRSA isolates, CLSI broth microdilution) was 12 µg/mL, the “change of MIC and MBC with the reduction in pH” value (MRSA isolates; six MRSA isolates, pH lowered to 5.5) was “decreased” and the “concentrations at which erythrocytes were not lysed” value ([5]; 1% sheep blood, 1-hour incubation) was “up to 24 µg/mL”. The “LD50 relative to MIC90” value ([5]; higher than MIC90, stated in the hemolysis discussion, cell type not named) was 10 fold.
